Reference: US9216183B2, “Topical treatment for chemotherapy induced eyelash loss or hypotrichosis using prostamide F2 alpha agonists” (ALLERGAN, INC., priority 2002, dated 2015)

How the values were obtained:
[1] = system: eyelashes of subjects with chemotherapy-induced hypotrichosis; experiment: Digital image analysis of upper eyelash length, thickness, darkness, chemotherapy-induced hypotrichosis; format: in vivo, human; settings: for Upper eyelash length, median percent change from baseline / Upper eyelash thickness, median percent change from baseline / Upper eyelash darkness, median percent change from baseline: chemotherapy-induced; for Upper eyelash darkness, median percent change from baseline / Mean change from baseline in eyelash darkness: negative = darker
Protocol: Efficacy was also assessed using more conservative criteria of 2-grade improvement in GEA. […] In addition to the investigator global assessment (GEA) and subjects own assessment (ESQ), the eyelash length, thickness/fullness and darkness were measures using digital image analysis. Secondary efficacy measures were based on digital image analysis (DIA) of eyelash characteristics: upper eyelash length (millimeters [mm]), thickness (mm^2), and darkness (intensity units). For darkness, a negative value in terms of change from baseline indicated darker eyelashes. Upper eyelash characteristics of length, thickness, and darkness were determined by a validated DIA method. The reliability and reproducibility of DIA have been verified within the acceptance criteria of 0.05% or less of mean coefficient of variance. The principal variables for the secondary efficacy assessments are: change from baseline in upper eyelash length (mm), average progressive eyelash thickness (mm^2), and eyelash darkness (intensity units) at months 4, 6, 10, and 12 or early termination. Descriptive statistics of the raw value at baseline and percent change from baseline at follow-up visits were summarized by treatment group for each principal measure of the 3 secondary variables of eyelash characteristics. Between-group comparisons were performed using a van Elteren test stratified by hypotrichosis etiology.

[2] = Safety (adverse events, IOP), chemotherapy-induced hypotrichosis subpopulation; format: in vivo, human
Protocol: Safety measures included adverse events (AEs), ophthalmic examination (ophthalmoscopy [dilated], biomicroscopy, IOP, iris color assessment, and BCVA). AEs were monitored throughout the study by the investigator.
The 12-month data were the primary focus of the safety evaluation. Safety data were summarized with descriptive statistics (n, or frequency distributions [counts or percentages]). Biomicroscopic examinations and assessments of iris color, IOP, and BCVA were performed for each subject at screening/baseline and months 1, 2, 4, 6, 8, and 12 (or early termination prior to month 12); ophthalmoscopic examinations (dilated) were performed at screening/baseline and months 6 and 12 (or early termination prior to month 12). Two IOP measurements were taken for each eye at each visit; a third measurement was taken if the difference between the first 2 measurements was more than 2 mm Hg. The average or median IOP was determined in the event that 2 or 3 measurements were made, respectively. The IOP value analyzed at each visit was the average IOP of the subject's 2 eyes. Change and percent change from baseline in IOP were summarized by descriptive statistics. Between-group comparison will be performed using the 1-way analysis of variance.

[3] = postchemotherapy, Month 4, bimatoprost from day 1
[4] = postchemotherapy, Month 4, bimatoprost from day 1, listed as Bim/Bim
[5] = postchemotherapy, Month 6, bimatoprost from day 1
[6] = postchemotherapy, Month 6, bimatoprost from day 1, listed as Bim/Bim
[7] = postchemotherapy, Month 6, bimatoprost from day 1, listed as bimatoprost
[8] = postchemotherapy, Month 10, Bim/Bim
[9] = postchemotherapy, Month 10, Veh/Bim (bimatoprost since month 6)
[10] = postchemotherapy, Month 12, Bim/Bim
[11] = postchemotherapy, Month 12, Veh/Bim (bimatoprost since month 6)
[12] = postchemotherapy, Month 12, bimatoprost up to 12 months
[13] = chemotherapy-induced, 0 to 6 Months (N = 96)
[14] = chemotherapy-induced, 0 to 12 Months (N = 96)
[15] = chemotherapy-induced, 6 to 12 Months (N = 89)
[16] = postchemotherapy, first 6-month study period
[17] = postchemotherapy, first 6 months, N = 96

## CCNC(=O)CCC/C=C\C[C@@H]1[C@@H](/C=C/[C@@H](O)CCc2ccccc2)[C@H](O)C[C@@H]1O [Bim 0.03%, bimatoprost]
[1]; Month 4
  Upper eyelash length, median percent change from baseline: 28.50%
  Upper eyelash thickness, median percent change from baseline: 180.10%
  Upper eyelash darkness, median percent change from baseline: −14.40%
[1]; Month 4, listed as Bimatoprost
  Upper eyelash length, median percent change from baseline: 28.5 (94) %
  Upper eyelash thickness, median percent change from baseline: 180.1 (64) %
  Upper eyelash darkness, median percent change from baseline: −14.4 (65) %
[1]; Month 6, listed as Bimatoprost
  Upper eyelash length, median percent change from baseline: 37.8 (94) %
  Upper eyelash thickness, median percent change from baseline: 245.9 (64) %
[1]; Month 6, listed as bimatoprost
  Upper eyelash length, median percent change from baseline: 37.84%
  Upper eyelash thickness, median percent change from baseline: 245%
[1]; Month 6
  Upper eyelash darkness, median percent change from baseline: −16.3 (65) %
[1]; [3]
  Mean change from baseline in average progressive eyelash thickness: 0.67 mm^2
  Mean change from baseline in eyelash length: 1.48 mm
[1]; [4]
  Mean change from baseline in average progressive eyelash thickness: 0.67 ± 0.514 mm^2
  Mean change from baseline in eyelash length: 1.48 ± 1.391 mm
[1]; postchemotherapy, Month 4
  Mean change from baseline in eyelash darkness: −22.48
[1]; postchemotherapy, Month 6
  Eyelash length, mean percent increase from baseline: 48.08%
  Eyelash thickness, mean percent increase from baseline: 428%
  Mean change from baseline in eyelash darkness: −26.46
[1]; [5]
  Mean change from baseline in average progressive eyelash thickness: 0.83 mm^2
  Mean change from baseline in eyelash length: 1.99 mm
[1]; [6]
  Mean change from baseline in average progressive eyelash thickness: 0.83 ± 0.576 mm^2
  Mean change from baseline in eyelash length: 1.99 ± 1.557 mm
[1]; [7]
  Mean change from baseline in average progressive eyelash thickness: 0.83 mm^2
  Mean change from baseline in eyelash length: 1.99 mm
[1]; [8]
  Mean change from baseline in average progressive eyelash thickness: 0.88 ± 0.516 mm^2
  Mean change from baseline in eyelash length: 2.14 ± 1.455 mm
[1]; [9]
  Mean change from baseline in average progressive eyelash thickness: 0.63 ± 1.042 mm^2
  Mean change from baseline in eyelash length: 2.27 ± 1.439 mm
[1]; [10]
  Mean change from baseline in average progressive eyelash thickness: 0.85 ± 0.575 mm^2
  Mean change from baseline in eyelash length: 2.01 ± 1.504 mm
[1]; [11]
  Mean change from baseline in average progressive eyelash thickness: 0.58 ± 1.085 mm^2
  Mean change from baseline in eyelash length: 2.07 ± 1.442 mm
[1]; [12]
  Eyelash length, mean percent increase from baseline: 49.88%
  Eyelash length, median percent increase from baseline: 39.08%
  Eyelash thickness, mean percent increase from baseline: 478%
  Eyelash thickness, median percent increase from baseline: 212%
[2]; [13]
  Conjunctival hyperaemia: 15.6%
  Erythema of eyelid: 1.0%
  Eye pruritus: 5.2%
  Eyelids pruritus: 3.1%
  Punctate keratitis: 8.3%
  Skin hyperpigmentation: 3.1%
[2]; [14]
  Conjunctival hyperaemia: 16.7%
  Erythema of eyelid: 3.1%
  Eye pruritus: 6.3%
  Eyelids pruritus: 3.1%
  Punctate keratitis: 9.4%
  Skin hyperpigmentation: 5.2%
[2]; chemotherapy-induced, 2-month visit, IOP measured in mm Hg
  Mean change from baseline in IOP: −1.22
[2]; [15]
  Conjunctival hyperaemia: 1.1%
  Erythema of eyelid: 2.2%
  Eye pruritus: 1.1%
  Eyelids pruritus: 1.1%
  Punctate keratitis: 1.1%
  Skin hyperpigmentation: 2.2%
[2]; [16]
  Subjects reporting at least 1 adverse event: 57.3%
  Subjects reporting treatment-related adverse events: 27.1%
[2]; postchemotherapy, first 6 months
  Treatment-related adverse events reported as severe: None
[2]; [17]
  Treatment-related conjunctival hyperaemia: 12 subjects
  Treatment-related eye pruritus: 3 subjects
  Treatment-related eyelid irritation: 2 subjects
  Treatment-related eyelids pruritus: 3 subjects
  Treatment-related punctate keratitis: 7 subjects
  Treatment-related skin hyperpigmentation: 3 subjects
